Source: PubChem BioAssay (NCI)
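These data come from cells grown in 96-well plates and exposed to compound for 48 hours at five concentrations. Abbreviation: GI50, concentration required for 50% inhibition of growth. TGI is the concentration that stops growth completely.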

Legend:
Assay in all cases: growth of human tumour cells (NCI), 48 h
[1] = system: MCF7 breast
[2] = system: SNB-75 CNS
[3] = system: 786-0 renal
[4] = system: CAKI-1 renal
[5] = system: SF-268 CNS
[6] = system: SK-OV-3 ovarian
[7] = system: MALME-3M melanoma
[8] = system: A498 renal
[9] = system: NCI-H460 lung
[10] = system: HL-60(TB) leukemia
[11] = system: ACHN renal
[12] = system: MDA-MB-231 breast
[13] = system: TK-10 renal
[14] = system: HT29 colon
[15] = system: OVCAR-5 ovarian
[16] = system: OVCAR-4 ovarian
[17] = system: SW-620 colon
[18] = system: IGROV1 ovarian
[19] = system: SK-MEL-2 melanoma
[20] = system: UACC-62 melanoma
[21] = system: SNB-19 CNS
[22] = system: M14 melanoma
[23] = system: SF-295 CNS
[24] = system: A549 NSCLC
[25] = system: HOP-92 NSCLC
[26] = system: SN12C renal
[27] = system: COLO 205 colon
[28] = system: NCI-H522 lung
[29] = system: K-562 leukemia
[30] = system: PC-3 prostate
[31] = system: SR leukemia
[32] = system: HCT-116 colon
[33] = system: KM12 colon
[34] = system: MDA-MB-435
[35] = system: HOP-62 NSCLC
[36] = system: NCI/ADR-RES ovarian
[37] = system: UO-31 renal
[38] = system: CCRF-CEM leukemia
[39] = system: DU-145 prostate
[40] = system: HCC-2998 colon
[41] = system: NCI-H226 lung
[42] = system: RPMI-8226 leukemia
[43] = system: NCI-H23 lung
[44] = system: HCT-15 colon
[45] = system: T-47D breast
[46] = system: SK-MEL-28 melanoma
[47] = system: UACC-257 melanoma
[48] = system: MOLT-4 leukemia
[49] = system: HS 578T breast
[50] = system: SF-539 CNS
[51] = system: LOX IMVI melanoma
[52] = system: U251 CNS
[53] = system: EKVX NSCLC
[54] = system: BT-549 breast
[55] = system: RXF 393 renal
[56] = system: OVCAR-8 ovarian
[57] = system: SK-MEL-5 melanoma

Q: How did the GI50 [1] turn out when `Cc1ccc(C)c(COc2cc(NC(=O)c3ccc4c(c3)OCO4)ccc2N(C)S(C)(=O)=O)c1` was run?
A: 71.6 nM

Q: And the TGI [1]?
A: > 100000 nM

Q: And the GI50 [2]?
A: 111 nM

Q: And the TGI [2]?
A: 1180 nM

Q: And the GI50 [3]?
A: 192 nM

Q: And the GI50 [4]?
A: 160 nM

Q: And the TGI [4]?
A: > 100000 nM

Q: And the GI50 [5]?
A: 310 nM

Q: What about the TGI [5] of the same compound?
A: > 100000 nM

Q: And the GI50 [6]?
A: 217 nM

Q: What about the TGI [6] of the same compound?
A: > 100000 nM

Q: What about the GI50 [7] of the same compound?
A: 111 nM

Q: What about the TGI [7] of the same compound?
A: > 100000 nM

Q: What about the GI50 [8] of the same compound?
A: 122 nM

Q: And the TGI [8]?
A: 853 nM

Q: What about the GI50 [9] of the same compound?
A: 139 nM

Q: And the TGI [9]?
A: 711 nM

Q: What about the GI50 [10] of the same compound?
A: 38.7 nM

Q: And the TGI [10]?
A: 489 nM

Q: What about the GI50 [11] of the same compound?
A: 420 nM

Q: And the TGI [11]?
A: > 100000 nM

Q: And the GI50 [12]?
A: 231 nM

Q: And the TGI [12]?
A: 798 nM

Q: What about the GI50 [13] of the same compound?
A: 402 nM

Q: And the TGI [13]?
A: > 100000 nM

Q: What about the GI50 [14] of the same compound?
A: 114 nM

Q: And the TGI [14]?
A: 2340 nM

Q: And the GI50 [15]?
A: 513 nM

Q: And the TGI [15]?
A: > 100000 nM

Q: And the GI50 [16]?
A: 648 nM

Q: And the TGI [16]?
A: > 100000 nM

Q: What about the GI50 [17] of the same compound?
A: 77.8 nM

Q: And the TGI [17]?
A: > 100000 nM

Q: And the GI50 [18]?
A: 237 nM

Q: And the TGI [18]?
A: > 100000 nM

Q: What about the GI50 [19] of the same compound?
A: 595 nM

Q: And the GI50 [20]?
A: 179 nM

Q: What about the TGI [20] of the same compound?
A: > 100000 nM

Q: What about the GI50 [21] of the same compound?
A: 332 nM

Q: And the TGI [21]?
A: > 100000 nM

Q: What about the GI50 [22] of the same compound?
A: 65.7 nM

Q: What about the TGI [22] of the same compound?
A: 560 nM

Q: What about the GI50 [23] of the same compound?
A: 62.1 nM

Q: What about the TGI [23] of the same compound?
A: 439 nM

Q: And the GI50 [24]?
A: 282 nM

Q: What about the TGI [24] of the same compound?
A: > 36900 nM

Q: What about the GI50 [25] of the same compound?
A: 2590 nM

Q: What about the TGI [25] of the same compound?
A: > 100000 nM

Q: What about the GI50 [26] of the same compound?
A: 447 nM

Q: And the TGI [26]?
A: > 100000 nM

Q: And the GI50 [27]?
A: 257 nM

Q: What about the TGI [27] of the same compound?
A: 816 nM

Q: What about the GI50 [28] of the same compound?
A: 81.5 nM

Q: And the TGI [28]?
A: 424 nM

Q: And the GI50 [29]?
A: 44.6 nM

Q: And the TGI [29]?
A: > 100000 nM

Q: And the GI50 [30]?
A: 131 nM

Q: And the TGI [30]?
A: > 100000 nM

Q: And the GI50 [31]?
A: 45.7 nM

Q: And the TGI [31]?
A: > 100000 nM

Q: And the GI50 [32]?
A: 66.2 nM

Q: What about the TGI [32] of the same compound?
A: 1120 nM

Q: What about the GI50 [33] of the same compound?
A: 77 nM

Q: And the TGI [33]?
A: 1060 nM

Q: And the GI50 [34]?
A: 24.8 nM

Q: And the TGI [34]?
A: 71.8 nM

Q: And the GI50 [35]?
A: 570 nM

Q: And the TGI [35]?
A: > 100000 nM

Q: What about the GI50 [36] of the same compound?
A: 56.2 nM

Q: And the TGI [36]?
A: 407 nM

Q: What about the GI50 [37] of the same compound?
A: 348 nM

Q: And the TGI [37]?
A: > 100000 nM

Q: What about the GI50 [38] of the same compound?
A: 86.6 nM

Q: What about the TGI [38] of the same compound?
A: > 100000 nM

Q: What about the GI50 [39] of the same compound?
A: 172 nM

Q: What about the TGI [39] of the same compound?
A: 543 nM

Q: And the GI50 [40]?
A: 132 nM

Q: And the TGI [40]?
A: 397 nM

Q: What about the GI50 [41] of the same compound?
A: 904 nM

Q: And the TGI [41]?
A: > 100000 nM

Q: And the GI50 [42]?
A: 319 nM

Q: What about the TGI [42] of the same compound?
A: > 100000 nM

Q: What about the GI50 [43] of the same compound?
A: 213 nM

Q: And the TGI [43]?
A: > 100000 nM

Q: And the GI50 [44]?
A: 127 nM

Q: And the TGI [44]?
A: > 100000 nM

Q: And the GI50 [45]?
A: 807 nM

Q: What about the TGI [45] of the same compound?
A: > 100000 nM

Q: What about the GI50 [46] of the same compound?
A: 3740 nM

Q: And the TGI [46]?
A: > 100000 nM

Q: And the GI50 [47]?
A: 1870 nM

Q: And the TGI [47]?
A: > 100000 nM

Q: What about the GI50 [48] of the same compound?
A: 228 nM

Q: And the TGI [48]?
A: > 100000 nM

Q: And the GI50 [49]?
A: 36.3 nM

Q: And the TGI [49]?
A: 307 nM

Q: And the GI50 [50]?
A: 118 nM

Q: What about the TGI [50] of the same compound?
A: 790 nM

Q: And the GI50 [51]?
A: 79.3 nM

Q: And the TGI [51]?
A: > 100000 nM

Q: And the GI50 [52]?
A: 238 nM

Q: What about the TGI [52] of the same compound?
A: > 46800 nM

Q: And the GI50 [53]?
A: 466 nM

Q: And the TGI [53]?
A: > 100000 nM

Q: And the GI50 [54]?
A: 374 nM

Q: And the TGI [54]?
A: > 100000 nM

Q: What about the GI50 [55] of the same compound?
A: 128 nM

Q: And the TGI [55]?
A: 403 nM

Q: What about the GI50 [56] of the same compound?
A: 286 nM

Q: And the TGI [56]?
A: > 100000 nM

Q: And the GI50 [57]?
A: 172 nM

Q: What about the TGI [57] of the same compound?
A: 1670 nM
